Test results reported in patent US8895610B1, “Platinum (IV) compounds targeting zinc finger domains” (priority 2007, dated 2014).
“And” between values parts separate entries of the source, which are not always exact repeats. Identical values can stand only once.

How the values were obtained:
FIV Petaluma = assay: p25 antigen evaluation of antiviral activity in MBM cells; assay type: cell-based, feline; details: for p25 Viral Antigen (OD), average / p25 Viral Antigen (OD), individual wells: 7 days post infection, K+ = 1.195, K− = 0.08
Procedure: Antiviral activity in MBM was determined by inoculating 200 Tissue Culture Infectious Doses 50% FIV Petaluma (Talbott, 1989) in 100 μL RPMI 1640 medium into quadruplicate wells of 96-well microplates containing 2×10^5 cells in 100 μL medium. The cultures were monitored by measuring FIV p25 capsid protein (Lombardi, 1994) release in the supernatants after 7 days of incubation at 37° C. in 5% CO2 (Table 12). Half the media (without drug) was replaced on days 2 and 6 after infection and initial drug exposure. […] Drugs are identified as: CPA-7 (#1); NAD (#2); cisplatin (#3) and FX101 (#4). […]. […] A minimum of 50% inhibition in vitro is required to offset viral infectivity and replication in vivo.

STAT3 = STAT3 (Homo sapiens, UniProt P40763); details: have been shown; cited from earlier work
Sequence of STAT3 (P40763 whole entry, species assumed): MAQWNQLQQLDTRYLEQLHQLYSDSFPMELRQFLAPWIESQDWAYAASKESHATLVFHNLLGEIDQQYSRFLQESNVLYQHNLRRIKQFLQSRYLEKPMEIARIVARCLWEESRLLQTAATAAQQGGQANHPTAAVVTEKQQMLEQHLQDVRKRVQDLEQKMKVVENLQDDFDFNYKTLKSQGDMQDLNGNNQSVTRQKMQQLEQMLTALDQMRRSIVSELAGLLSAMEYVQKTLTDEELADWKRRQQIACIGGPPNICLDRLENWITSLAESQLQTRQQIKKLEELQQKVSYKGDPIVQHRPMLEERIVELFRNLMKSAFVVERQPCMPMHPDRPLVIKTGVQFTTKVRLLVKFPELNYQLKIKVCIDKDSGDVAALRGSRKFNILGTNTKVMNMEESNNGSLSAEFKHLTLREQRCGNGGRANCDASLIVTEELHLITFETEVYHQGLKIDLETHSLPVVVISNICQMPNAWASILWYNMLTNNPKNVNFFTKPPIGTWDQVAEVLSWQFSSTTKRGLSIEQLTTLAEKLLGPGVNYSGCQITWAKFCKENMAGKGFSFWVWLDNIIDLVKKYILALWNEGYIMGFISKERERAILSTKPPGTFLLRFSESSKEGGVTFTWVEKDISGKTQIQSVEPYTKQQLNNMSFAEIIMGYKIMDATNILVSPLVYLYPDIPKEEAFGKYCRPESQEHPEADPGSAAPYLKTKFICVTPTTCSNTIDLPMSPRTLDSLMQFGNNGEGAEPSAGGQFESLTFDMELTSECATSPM

[NH2][Pt]([NH2])([Cl])([Cl])([Cl])[N+](=O)[O-] [Drug #1]
inhibition (elimination of all measures of virus) by day 7 (FIV Petaluma; 7 days, concentrations used 5 and 20 μM): < 30%
p25 Viral Antigen (OD), average (FIV Petaluma; conc 5 μM): 1.0943 OD
p25 Viral Antigen (OD), individual wells (FIV Petaluma; conc 5 μM): 1.093 OD and 1.122 OD and 1.068 OD
p25 Viral Antigen (OD), average (FIV Petaluma; conc 20 μM): 0.8163 OD
p25 Viral Antigen (OD), individual wells (FIV Petaluma; conc 20 μM): 0.788 OD and 0.825 OD and 0.836 OD
antiviral effectiveness (in words) (FIV Petaluma; p25 release, MBM cells, 7 days): insignificantly effective
inhibition of STAT3 (STAT3): inhibit STAT3

N.N.[Cl][Pt][Cl] [Drug #3, cisplatin]
p25 Viral Antigen (OD), average (FIV Petaluma; conc 5 μM): 1.0157 OD
p25 Viral Antigen (OD), individual wells (FIV Petaluma; conc 5 μM): 1.04 OD and 1.021 OD and 0.986 OD
p25 Viral Antigen (OD), average (FIV Petaluma; conc 20 μM): 1.0133 OD
p25 Viral Antigen (OD), individual wells (FIV Petaluma; conc 20 μM): 1.014 OD and 1.033 OD and 0.993 OD
